# Results published in patent publication US9828407B2, “Water soluble and activable phenolic derivatives with dermocosmetic and therapeutic applications and process for preparing said derivatives” (LIBRAGEN, priority 2006, dated 2017).
# Values joined by “and” are separate entries in the source; they are usually repeats but may differ in a detail not shown here. Identical values can stand only once. Like-named read-outs stand apart in the source and are kept apart here.
# Tests used:
# [1] = system: α-glucosidase (from Saccharomyces cerevisiae); assay: Activation (hydrolysis) of Taxifolin glucoside by an α-glucosidase preparation; assay type: biochemical; details: 18 hours, 30° C., potassium phosphate buffer 0.1 M
# Description: The reaction media were analysed by HPLC (method 2) after a 2-fold dilution of an aliquot with methanol.
# [2] = Solubility in water; assay type: physicochemical; details: 25° C.
# [3] = background statement; cited from earlier work
compound,measurement,setting,value
taxifolin O-α-glucoside [Taxifolin glucoside],colour or odour changes on storage,"4° C., 22° C., 37° C. and 45° C., 4 months",No colour or odour changes
same,Measured quantity of taxifolin glucoside (in % of the initial quantity),"day 0, stored at +4° C.",100%
same,Measured quantity of taxifolin glucoside (in % of the initial quantity),"day 0, stored at +22° C.",100%
same,Measured quantity of taxifolin glucoside (in % of the initial quantity),"day 0, stored at +37° C.",100%
same,Measured quantity of taxifolin glucoside (in % of the initial quantity),"day 0, stored at +45° C.",100%
same,Measured quantity of taxifolin glucoside (in % of the initial quantity),"day 9, stored at +4° C.",100%
same,Measured quantity of taxifolin glucoside (in % of the initial quantity),"day 9, stored at +22° C.",100%
same,Measured quantity of taxifolin glucoside (in % of the initial quantity),"day 9, stored at +37° C.",100%
same,Measured quantity of taxifolin glucoside (in % of the initial quantity),"day 9, stored at +45° C.",100%
same,Measured quantity of taxifolin glucoside (in % of the initial quantity),"day 23, stored at +4° C.",100%
same,Measured quantity of taxifolin glucoside (in % of the initial quantity),"day 23, stored at +22° C.",100%
same,Measured quantity of taxifolin glucoside (in % of the initial quantity),"day 23, stored at +37° C.",100%
same,Measured quantity of taxifolin glucoside (in % of the initial quantity),"day 23, stored at +45° C.",91%
same,Measured quantity of taxifolin glucoside (in % of the initial quantity),"day 37, stored at +4° C.",100%
same,Measured quantity of taxifolin glucoside (in % of the initial quantity),"day 37, stored at +22° C.",100%
same,Measured quantity of taxifolin glucoside (in % of the initial quantity),"day 37, stored at +37° C.",100%
same,Measured quantity of taxifolin glucoside (in % of the initial quantity),"day 37, stored at +45° C.",94%
same,Measured quantity of taxifolin glucoside (in % of the initial quantity),"day 63, stored at +4° C.",100%
same,Measured quantity of taxifolin glucoside (in % of the initial quantity),"day 63, stored at +22° C.",95%
same,Measured quantity of taxifolin glucoside (in % of the initial quantity),"day 63, stored at +37° C.",96%
same,Measured quantity of taxifolin glucoside (in % of the initial quantity),"day 63, stored at +45° C.",79%
same,Measured quantity of taxifolin glucoside (in % of the initial quantity),"day 118, stored at +4° C.",100%
same,Measured quantity of taxifolin glucoside (in % of the initial quantity),"day 118, stored at +22° C.",100%
same,Measured quantity of taxifolin glucoside (in % of the initial quantity),"day 118, stored at +37° C.",91%
same,Measured quantity of taxifolin glucoside (in % of the initial quantity),"day 118, stored at +45° C.",73%
same,conversion of Taxifolin glucoside in the presence of the α-glucosidase enzyme,[1]; pH 7.3,totally converted into Taxifolin
same,stability of Taxifolin glucoside in the medium without α-glucosidase enzyme,"[1]; pH 7.3, no enzyme",remained unchanged
"O=C1c2c(O)cc(O)cc2OC(c2ccc(O)c(O)c2)C1O (centres unmarked) [Taxifolin, 3,5,7,3′,4′-pentahydroxyflavanone]",solubility,[2],1190 µg/mL and 3910 µM
same,solubility in aqueous solution,[3],around 1 g/l
